Measurements as given in patent US7429592B2, “Cyanoanthranilamide derivatives and the use thereof as medicaments” (Schering Aktienegesellschaft, priority 2001, dated 2008).

Key:
VEGFR II (KDR) = VEGFR II (KDR) (Homo sapiens, UniProt P35968); assay: Inhibition of the KDR kinase activity (33P-ATP, poly-(Glu4Tyr) substrate, phosphocellulose filter); type: biochemical; details: 10 minutes at room temperature; phosphate incorporation
Protocol: • Stock solution A: 3 mmol of ATP in water, pH 7.0 (−70° C.) • Stock solution B: g-33P-ATP 1 mCi/100 μl • Stock solution C: poly-(Glu4 Tyr) 10 mg/ml in water Solution for Dilutions • Substrate solvent: 10 mmol of DTT, 10 mmol of manganese chloride, 100 mmol of magnesium chloride • Enzyme solution: 120 mmol of tris/HCl, pH 7.5, […] of sodium vanadium oxide
Inhibition of the KDR- and FLT-1 Kinase Activity in the Presence of the Compounds According to the Invention
In a microtiter plate (without protein binding) that tapers to a point, 10 μl of substrate mix (10 μl of volume of ATP stock solution A+25 μCi of g-33P-ATP (about 2.5 μl of stock solution B)+30 μl of poly-(Glu4Tyr) stock solution C+1.21 ml of substrate solvent), 10 μl of inhibitor solution (substances corresponding to the dilutions, 3% DMSO in substrate solvent as a control) and 10 μl of enzyme solution (11.25 μg of enzyme stock solution (KDR or FLT-1 kinase) are added at 4° C. in 1.25 ml of enzyme solution (dilute). It is thoroughly mixed and incubated for 10 minutes at room temperature. Then, 10 μl of stop solution ([…] of EDTA, pH 7.0) is added, mixed, and 10 μl of the solution is transferred to a P 81 phosphocellulose filter. Then, it is washed several times in 0.1 M phosphoric acid. The filter paper is dried, coated with Meltilex and measured in a microbeta counter.
The IC50 values are determined from the inhibitor concentration, which is necessary to inhibit the phosphate incorporation to 50% of the uninhibited incorporation after removal of the blank reading (EDTA-stopped reaction).

Cytochrome P450 1A2 = target: T1, Cytochrome P450 1A2 (Homo sapiens, UniProt P05177); assay: Cytochrome P450 inhibition (Crespi et al.); type: in vitro ADME; details: baculovirus/insect cell-expressed human isoenzyme 1A2; read-out: Inhibition of the Cytochrome P450 Isoenzymes IC50, 1A2
T1 construct: host or cells: baculovirus/insect cells
T1 sequence (P05177 1-516): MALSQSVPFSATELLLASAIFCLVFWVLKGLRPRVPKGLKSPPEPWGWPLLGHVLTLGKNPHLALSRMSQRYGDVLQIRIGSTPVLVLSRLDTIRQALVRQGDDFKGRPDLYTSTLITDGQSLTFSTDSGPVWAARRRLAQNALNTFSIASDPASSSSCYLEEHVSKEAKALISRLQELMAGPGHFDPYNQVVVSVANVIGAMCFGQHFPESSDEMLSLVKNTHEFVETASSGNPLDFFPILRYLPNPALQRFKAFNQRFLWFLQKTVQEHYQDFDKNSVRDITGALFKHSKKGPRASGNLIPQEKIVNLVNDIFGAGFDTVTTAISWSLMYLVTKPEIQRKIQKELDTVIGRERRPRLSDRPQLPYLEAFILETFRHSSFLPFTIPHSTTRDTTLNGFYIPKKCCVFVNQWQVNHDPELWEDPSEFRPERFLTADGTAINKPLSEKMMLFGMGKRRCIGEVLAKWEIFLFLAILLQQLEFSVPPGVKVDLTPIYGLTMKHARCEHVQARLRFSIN
Protocol: (§1) The Cytochrome P450 inhibition was performed according to the publication of Crespi et al. (Anal. Biochem., 248, 188-190 (1997)) with use of baculovirus/insect cell-expressed, human Cytochrome P 450 isoenzymes (1A2, 2C9, 2C19, 2D6, 3A4).

Cytochrome P450 2C9 = target: T2, Cytochrome P450 2C9 (Homo sapiens, UniProt P11712); assay: Cytochrome P450 inhibition (Crespi et al.); type: in vitro ADME; details: baculovirus/insect cell-expressed human isoenzyme 2C9; read-out: Inhibition of the Cytochrome P450 Isoenzymes IC50, 2C9
T2 construct: host or cells: baculovirus/insect cells
T2 sequence (P11712 whole entry): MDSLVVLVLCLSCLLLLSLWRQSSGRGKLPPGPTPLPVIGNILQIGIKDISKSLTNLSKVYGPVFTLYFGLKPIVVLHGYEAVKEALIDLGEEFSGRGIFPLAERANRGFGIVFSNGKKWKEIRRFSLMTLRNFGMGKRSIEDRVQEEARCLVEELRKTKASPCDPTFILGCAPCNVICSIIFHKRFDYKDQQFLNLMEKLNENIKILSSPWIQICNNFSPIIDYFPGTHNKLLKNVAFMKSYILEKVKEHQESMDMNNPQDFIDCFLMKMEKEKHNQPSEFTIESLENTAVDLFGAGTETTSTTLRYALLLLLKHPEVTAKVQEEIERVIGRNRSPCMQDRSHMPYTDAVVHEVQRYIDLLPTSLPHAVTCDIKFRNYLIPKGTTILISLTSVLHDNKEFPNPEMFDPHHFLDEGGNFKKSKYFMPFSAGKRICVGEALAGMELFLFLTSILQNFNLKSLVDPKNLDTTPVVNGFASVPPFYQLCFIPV
Protocol: as §1

Cytochrome P450 2D6 = target: T3, Cytochrome P450 2D6 (Homo sapiens, UniProt P10635); assay: Cytochrome P450 inhibition (Crespi et al.); type: in vitro ADME; details: baculovirus/insect cell-expressed human isoenzyme 2D6; read-out: Inhibition of the Cytochrome P450 Isoenzymes IC50, 2D6
T3 construct: host or cells: baculovirus/insect cells
T3 sequence (P10635 whole entry): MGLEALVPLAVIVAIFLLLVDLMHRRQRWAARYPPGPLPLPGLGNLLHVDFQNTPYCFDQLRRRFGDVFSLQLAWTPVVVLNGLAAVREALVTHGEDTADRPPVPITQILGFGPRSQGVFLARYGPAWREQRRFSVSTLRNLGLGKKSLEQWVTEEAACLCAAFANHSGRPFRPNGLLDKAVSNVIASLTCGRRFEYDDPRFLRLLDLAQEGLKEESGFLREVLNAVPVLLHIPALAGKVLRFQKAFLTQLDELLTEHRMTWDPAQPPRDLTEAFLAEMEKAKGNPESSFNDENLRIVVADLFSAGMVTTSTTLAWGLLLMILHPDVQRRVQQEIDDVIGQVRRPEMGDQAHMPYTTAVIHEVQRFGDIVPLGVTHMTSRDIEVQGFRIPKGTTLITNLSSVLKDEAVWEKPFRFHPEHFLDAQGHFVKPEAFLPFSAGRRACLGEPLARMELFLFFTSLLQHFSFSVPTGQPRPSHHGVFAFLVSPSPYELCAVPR
Protocol: as §1

Cytochrome P450 3A4 = target: T4, Cytochrome P450 3A4 (Homo sapiens, UniProt P08684); assay: Cytochrome P450 inhibition (Crespi et al.); type: in vitro ADME; details: baculovirus/insect cell-expressed human isoenzyme 3A4; read-out: Inhibition of the Cytochrome P450 Isoenzymes IC50, 3A4
T4 construct: host or cells: baculovirus/insect cells
T4 sequence (P08684 whole entry): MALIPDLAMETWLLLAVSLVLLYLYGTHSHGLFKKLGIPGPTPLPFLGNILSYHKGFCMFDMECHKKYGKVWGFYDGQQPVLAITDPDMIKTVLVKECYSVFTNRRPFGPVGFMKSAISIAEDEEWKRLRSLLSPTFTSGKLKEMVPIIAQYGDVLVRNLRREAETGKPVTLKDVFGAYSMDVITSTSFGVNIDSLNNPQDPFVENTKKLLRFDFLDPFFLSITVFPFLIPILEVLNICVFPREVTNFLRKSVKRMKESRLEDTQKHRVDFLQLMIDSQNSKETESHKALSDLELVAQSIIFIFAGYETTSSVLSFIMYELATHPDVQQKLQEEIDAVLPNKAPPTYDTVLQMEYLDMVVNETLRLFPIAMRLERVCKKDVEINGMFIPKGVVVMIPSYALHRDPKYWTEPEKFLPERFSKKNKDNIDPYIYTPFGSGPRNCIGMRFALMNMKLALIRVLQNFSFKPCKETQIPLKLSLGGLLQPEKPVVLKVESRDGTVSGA
Protocol: as §1

Cytochrome P450 2C19 = target: T5, Cytochrome P450 2C19 (Homo sapiens, UniProt P33261); assay: Cytochrome P450 inhibition (Crespi et al.); type: in vitro ADME; details: baculovirus/insect cell-expressed human isoenzyme 2C19; read-out: Inhibition of the Cytochrome P450 Isoenzymes IC50, 2C19
T5 construct: host or cells: baculovirus/insect cells
T5 sequence (P33261 whole entry): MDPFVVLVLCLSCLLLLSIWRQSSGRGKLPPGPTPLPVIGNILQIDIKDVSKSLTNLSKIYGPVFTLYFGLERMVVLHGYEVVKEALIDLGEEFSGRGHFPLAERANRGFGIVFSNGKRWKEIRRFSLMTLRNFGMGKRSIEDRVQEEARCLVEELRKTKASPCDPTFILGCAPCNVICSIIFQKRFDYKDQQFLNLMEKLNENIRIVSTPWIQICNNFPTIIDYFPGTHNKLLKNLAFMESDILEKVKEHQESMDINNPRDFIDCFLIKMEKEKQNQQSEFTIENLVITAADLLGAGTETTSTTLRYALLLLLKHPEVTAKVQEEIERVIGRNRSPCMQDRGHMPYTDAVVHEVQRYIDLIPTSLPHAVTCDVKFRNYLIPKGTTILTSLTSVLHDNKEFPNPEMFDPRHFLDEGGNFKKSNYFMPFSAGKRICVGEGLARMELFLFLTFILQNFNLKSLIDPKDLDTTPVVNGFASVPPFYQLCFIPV
Protocol: as §1

Sequence of VEGFR II (KDR) (P35968 20-1356, species assumed): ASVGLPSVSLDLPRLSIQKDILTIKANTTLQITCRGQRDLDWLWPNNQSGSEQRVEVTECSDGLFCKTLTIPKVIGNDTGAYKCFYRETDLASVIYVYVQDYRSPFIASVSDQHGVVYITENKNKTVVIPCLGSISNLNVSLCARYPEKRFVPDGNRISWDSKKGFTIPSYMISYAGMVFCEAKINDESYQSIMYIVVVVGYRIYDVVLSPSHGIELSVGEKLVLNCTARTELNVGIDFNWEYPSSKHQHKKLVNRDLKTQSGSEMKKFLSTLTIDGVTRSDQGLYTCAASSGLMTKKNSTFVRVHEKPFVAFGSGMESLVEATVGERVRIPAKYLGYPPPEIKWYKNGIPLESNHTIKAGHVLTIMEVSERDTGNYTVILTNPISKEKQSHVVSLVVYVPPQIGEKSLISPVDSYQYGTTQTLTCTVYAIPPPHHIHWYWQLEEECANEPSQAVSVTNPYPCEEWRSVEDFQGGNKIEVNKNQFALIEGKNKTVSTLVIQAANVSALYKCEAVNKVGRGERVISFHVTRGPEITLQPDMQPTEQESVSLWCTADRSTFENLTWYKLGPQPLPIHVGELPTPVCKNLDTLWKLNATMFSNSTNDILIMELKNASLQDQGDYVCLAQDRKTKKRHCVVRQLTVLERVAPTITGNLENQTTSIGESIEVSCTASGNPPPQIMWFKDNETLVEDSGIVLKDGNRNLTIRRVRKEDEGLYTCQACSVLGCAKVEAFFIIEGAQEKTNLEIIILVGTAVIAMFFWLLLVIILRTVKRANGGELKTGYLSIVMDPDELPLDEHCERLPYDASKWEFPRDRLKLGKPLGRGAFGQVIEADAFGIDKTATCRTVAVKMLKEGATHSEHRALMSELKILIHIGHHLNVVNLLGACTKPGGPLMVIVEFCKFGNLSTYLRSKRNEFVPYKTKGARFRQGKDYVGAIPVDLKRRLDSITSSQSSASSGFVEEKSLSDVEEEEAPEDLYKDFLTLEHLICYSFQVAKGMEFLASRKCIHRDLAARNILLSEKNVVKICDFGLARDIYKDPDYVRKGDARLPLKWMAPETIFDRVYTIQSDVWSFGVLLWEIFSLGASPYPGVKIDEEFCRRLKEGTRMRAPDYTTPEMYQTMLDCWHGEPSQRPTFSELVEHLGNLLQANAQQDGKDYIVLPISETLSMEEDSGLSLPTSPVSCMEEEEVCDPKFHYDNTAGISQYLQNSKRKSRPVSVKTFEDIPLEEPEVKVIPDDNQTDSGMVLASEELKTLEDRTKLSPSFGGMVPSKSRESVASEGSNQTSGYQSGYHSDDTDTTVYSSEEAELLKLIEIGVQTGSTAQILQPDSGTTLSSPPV

| IC50 (VEGFR II (KDR)) | melting point | SMILES | also measured |
| --- | --- | --- | --- |
| 50 nM | 173.8 °C | N#Cc1ccc(CNc2ccccc2C(=O)Nc2cc3ccccc3cn2)cn1 [Example 2] |  |
| 200 nM |  | N#Cc1cc(CNc2ccccc2C(=O)Nc2ccc3c(c2)NC(=O)C3)ccn1 [Example 13] |  |
| 10 nM |  | N#Cc1cc(CNc2ccccc2C(=O)Nc2cc3ccccc3cn2)ccn1 [Example 1] | IC50 (Cytochrome P450 1A2): > 30 µM; IC50 (Cytochrome P450 2C9): 1200 nM; IC50 (Cytochrome P450 2D6): > 30 µM; IC50 (Cytochrome P450 3A4): > 30 µM; IC50 (Cytochrome P450 2C19): 1800 nM |
| 300 nM | 173.4 °C | COc1ccc2cc(NC(=O)c3ccccc3NCc3ccc(C#N)nc3)c(=O)oc2c1 [Example 6] |  |
| 50 nM | 233.4 °C (dec.) | N#Cc1ncccc1CNc1ccccc1C(=O)Nc1cc2ccccc2cn1 [Example 3] |  |
| 200 nM |  | Cn1cc2ccc(NC(=O)c3ccccc3NCc3ccnc(C#N)c3)cc2n1 [Example 15] |  |

More lines, now with the values behind:

| SMILES | IC50 (VEGFR II (KDR)) | melting point | also measured |
| --- | --- | --- | --- |
| N#Cc1cc(CNc2ccccc2C(=O)Nc2ccc3cn[nH]c3c2)ccn1 [Example 16] | 100 nM |  |  |
| N#CCn1ncc2ccc(NC(=O)c3ccccc3NCc3ccnc(C#N)c3)cc21 [Example 5] | 300 nM |  |  |
| N#Cc1ccc(CNc2ccccc2C(=O)Nc2ccc3c(c2)CC(=O)N3)cn1 [Example 4] | 300 nM |  |  |
| COc1ccc2cc(C)c(NC(=O)c3ccccc3NCc3ccnc(C#N)c3)nc2c1 [Example 12] | 700 nM | 153 to 155 °C |  |
| COc1ccc2cc(NC(=O)c3ccccc3NCc3ccnc(C#N)c3)c(=O)oc2c1 [Example 11] | 200 nM | 165 to 167 °C |  |
| Cn1ncc2ccc(NC(=O)c3ccccc3NCc3ccnc(C#N)c3)cc21 [Example 10] | 200 nM | 155 to 158 °C |  |
